Test results taken from patent publication US9980479B2, “Method of reducing nematode damage” (Syngenta Crop Protection, LLC, priority 2004, dated 2018).
Like-named read-outs stand apart in the source and are kept apart here.

Assays:
[1] = tested on: nematodes (Pratylenchus spp.); conditions: tomato; for % yield increase over check / Total average weight of tomatoes per treatment: at harvest; for % damage of roots: drench 1, 14, 27 and 40 days after transplantation
Procedure: (§1) Tomato plants are transplanted into a field infested with nematodes (Pratylenchus spp.) and treated with the treatments indicated in Table I below 1, 14, 27 and 40 days after transplantation. The products are applied by drenching 100 ml spray solution per plant. Plot size is 24 m^2 with 4 replicates. At harvest (up to 19 weeks later), all tomatoes are collected and weighted. The check is an untreated control.

[2] = tested on: nematodes (Meloidogyne spp.); conditions: tomato; for % yield increase over check / Total average weight of tomatoes per 100 plants: at harvest; for % average root galling: drench 1, 18, 32 and 46 days after transplantation
Procedure: as §1, with “(Meloidogyne” for “(Pratylenchus”, “IV” for “I”, “18, 32” for “14, 27”, “46” for “40”, “42.7” for “24”

Meloidogyne [3] = assay: Experiment 5: sandy soil cup test, live 2nd stage nematodes from eggs; type: in vivo; conditions: applied solution 3 ppm, 15 days of incubation
Procedure: (§2) 110 grams of dry sandy soil is put into plastic cups. The soil is treated by adding 25 ml of water containing given concentrations (in ppm) of chemicals to the soil. The soil and water is carefully mixed and thereafter 1 ml of water containing 12,000 eggs of Meloidogyne is added. After 15 days of incubation, the samples are analyzed for live 2nd stage nematodes by sieving the sand and rinsing with tap water. The amount of rinseate is adjusted to 20 ml. From the 20 ml, 3 samples of 1 ml are taken and nematodes counted, using a counting chamber.

Meloidogyne [4] = assay: Experiment 6: clay soil cup test, live 2nd stage nematodes from eggs; type: in vivo; conditions: applied solution 3 ppm, 15 days of incubation
Procedure: as §2, with “50” for “110”, “clay” for “sandy”, “50” for “25”, “mixed,” for “mixed”, “10.,000” for “12,000”, “clay,” for “sand”

[5] = tested on: nematodes (Pratylenchus spp.); conditions: tomato; for % yield increase over check / Total average weight of tomatoes per plant in gr: at harvest; for % damage of roots: drench 1, 14, 27 and 40 days after transplantation
Procedure: as §1, with “II” for “I”

[6] = tested on: nematodes (Meloidogyne spp.); conditions: tomato; for % yield increase over check / Total average weight of tomatoes per 100 plant in kgr: at harvest; for % root galling: drench 1, 18, 32 and 46 days after transplantation
Procedure: as §1, with “(Meloidogyne” for “(Pratylenchus”, “III” for “I”, “18, 32” for “14, 27”, “46” for “40”, “36.7” for “24”

## O=C(O)CN(CCN(CC(=O)O)CC(=O)O)CC(=O)O [EDTA, ethylenediaminetetraacetic acid]
[1]; 500 g ai/ha
  % yield increase over check: 12%
  Total average weight of tomatoes per treatment: 784 kg
  % damage of roots: 25.8%
[1]; 1000 g ai/ha
  % yield increase over check: 17%
  Total average weight of tomatoes per treatment: 817 kg
  % damage of roots: 22.5%
[2]; 500 g ai/ha
  % yield increase over check: 6%
  Total average weight of tomatoes per 100 plants: 349 kg
  % average root galling: 34.4%
[2]; 1000 g ai/ha
  % yield increase over check: 10%
  Total average weight of tomatoes per 100 plants: 360 kg
  % average root galling: 23.7%
Meloidogyne [3]
  % reduction of live stages: 0.1%
  Number of live 2nd stage nematodes: 1650
Meloidogyne [4]
  % reduction of live stages: 0.1%
  Number of live 2nd stage nematodes: 1200

## N,N′-ethylenebis(hydroxyphenyl)glycines [EDDHA]
[5]; 500 g ai/ha
  % yield increase over check: 11%
  Total average weight of tomatoes per plant in gr: 3500 gr
  % damage of roots: 18.5%
[5]; 1000 g ai/ha
  % yield increase over check: 18%
  Total average weight of tomatoes per plant in gr: 3695 gr
  % damage of roots: 13.8%
[6]; 500 g ai/ha
  % yield increase over check: 13%
  Total average weight of tomatoes per 100 plant in kgr: 255 kgr
  % root galling: 35%
[6]; 1000 g ai/ha
  % yield increase over check: 17%
  Total average weight of tomatoes per 100 plant in kgr: 265 kgr
  % root galling: 26.1%
Meloidogyne [3]
  % reduction of live stages: 0.1%
  Number of live 2nd stage nematodes: 1649
Meloidogyne [4]
  % reduction of live stages: 0.3%
  Number of live 2nd stage nematodes: 1197
